Experiments:
white mice = experiment: motility inhibiting effect (orientation reflex, eight-channel Dews apparatus); format: in vivo; settings: for Therapeutical index (LD50/ED50), motility inhibiting effect: LD50/ED50, Dews apparatus, mice p.o.; for ED50: Mus musculus, 0.5 h, white mice, oral, pre-treatment of 30 minutes, light beam interceptions, read-out: ED50 p.o. (motility inhibiting effect)
Experimental: The effect of the new compounds exerted on the orientation reflex was tested on white mice in an eight-channel Dews apparatus, according to the method of Borsy et al. (Arch. Int. Pharmacodyn. 124, 1-2 /1960/). The number of light beam interceptions, caused by the movement of the animals, was recorded after a pre-treatment of 30 minutes. The test groups consisted of 3 mice. The ED50 values obtained in the investigation of motility-inhibiting effect, furthermore the therapeutical indices (LD50 /ED50) calculated therefrom are listed in Table 4.

[1] = tested on: animals treated with tetrabenazine; experiment: tetrabenazine-antagonizing effect (closed palpebral fissures); format: in vivo; settings: for Therapeutical index (LD50/ED50), tetrabenazine-antagonizing effect: LD50/ED50, p.o.; for ED50: Mus musculus, oral, 30 min before 50 mg/kg tetrabenazine p.o., readings at 30, 60, 90 and 120 min summed
Experimental: The tetrabenzine-antagonizing effect of the new compounds was tested on groups consisting of 10 mice each. The animals belonging to the control group received an oral dosage of 20 ml/kg of 0.9% aqueous sodium chloride solution, whereas the other animals were treated orally with the compound to be tested. 30 minutes after the introduction of the active agent or the vehicle 50 mg/kg of tetrabenazine (3-isobutyl-9,10-[…]-1,2,3,4,6,7-hexahydrobenzo[a]quinolisine-2-one) were administered orally into the animals, and the animals with closed palpebral fissures were counted 30, 60, 90 and 120 minutes after the administration of tetrabenazine. The data obtained in the individual measuring times were added, and the percentage inhibition related to the controls was calculated.

mice [2] = experiment: analgesic effect, writhing test (acetic acid i.p.); format: in vivo; settings: for Therapeutical index (LD50/ED50), analgesic effect: LD50/ED50, writhing test, mice p.o.; for ED50: Mus musculus, mice, oral 1 h before 0.4 ml of 0.5% acetic acid i.p., dosage decreasing number of writhings by 50%, read-out: ED50 p.o. (analgesic effect)
Experimental: The analgesic effect of the new compounds according to the invention was investigated on mice by the so-called writhing test. […] The animals were treated orally with the compound to be tested one hour before the introduction of acetic acid. The animals belonging to the control group received vehicle only.

mice [3] = experiment: potentiation of hexobarbital-induced narcosis (method of Kaergaard et al.); format: in vivo; settings: for Therapeutical index (LD50/ED50), potentiation of hexobarbital-induced narcosis: LD50/ED50, mice p.o.; for ED50: Mus musculus, mice, oral, then 40 mg/kg hexobarbital i.v., 150% prolongation of sleeping time = positive, read-out: ED50 p.o. (potentiation of hexobarbital-induced narcosis)
Experimental: The hexobarbital-induced narcosis potentiating effect of the new compounds was tested by the method of Kaergaard et al. (Arch. Int. Pharmacodyn. 2, 170 /1967/) on groups consisting of 6 mice each. The animals belonging to the control group received an oral dosage of 20 ml/kg of 0.9% aqueous sodium chloride solution, whereas the other animals were treated orally with the compound to be tested. Thereafter 40 mg/kg of hexobarbital (5-/1-cyclohexenyl/-[…]) were administered intravenously into the animals. A 150% prolongation of the sleeping time, related to the average value observed in the controls, was regarded as positive response. The number of animals giving positive response was compared to the total number of the animals treated.

in vivo = settings: mouse, mice, oral
Experimental: The acute toxicity of the new compounds having the general formula (I) was tested on mice. The substances to be tested were administered orally to the animals.

rats = experiment: antiphlogistic effect, carrageenine-induced paw swelling (method of Winter); format: in vivo; settings: Rattus norvegicus, oral, paw volume before and 3 h after 0.1 ml 1% carrageenine, read-out: Dosage exerting 30% inhibition (antiphlogistic effect)
Experimental: The antiphlogistic effect of the new compounds according to the invention was investigated on rats by the method of Winter (J. Pharm. Exp. […] The volume of the treated paw was measured by […] before and 3 hours after challenge. The compounds to be tested were administered orally into the animals.

Compound | Therapeutical index (LD50/ED50), motility inhibiting effect (white mice) | ED50 (white mice) [mg/kg] | Therapeutical index (LD50/ED50), tetrabenazine-antagonizing effect [1] | ED50 [1] [mg/kg] | Therapeutical index (LD50/ED50), analgesic effect (mice [2]) | ED50 (mice [2]) [mg/kg] | Therapeutical index (LD50/ED50), potentiation of hexobarbital-induced narcosis (mice [3]) | ED50 (mice [3]) [mg/kg] | LD50 (in vivo) [mg/kg] | ED30 (rats) [mg/kg]
CC(=O)N1N=C(c2ccccc2)Nc2cnccc21 [Example 17, 3-phenyl-1-acetyl-1,4-dihydropyrido[3,4-e]-as-triazine] | 46.67 | 30 | 25 | 56 | 60.87 | 23 | 40 | 35 | 1400 | 
CCC(=O)N1N=C(C)Nc2cnccc21 [Example 11, 3-Methyl-1-propionyl-1,4-dihydropyrido[3,4-e]-as-triazine] |  |  |  |  |  |  | 25 | 20 | 500 | 30
CC(=O)N1C=NN(C(C)=O)c2ccncc21 [Example 1, 1,4-diacetyl-1,4-dihydropyrido[3,4-e]-as-triazine] |  |  |  |  |  |  | 11.4 | 25 | 360 | 25
CCCC(C)(COC(N)=O)COC(N)=O [Meprobamate, reference compound] | 14.1 | 270 |  |  |  |  | 4.1 | 270 |  | 
CCC(=O)N1N=C(c2ccccc2)Nc2cnccc21.Cl [12 (HCl), 3-phenyl-1-propionyl-1,4-dihydro-pyrido[3,4-e]-as-triazine hydrochloride] | 40 | 50 | 50 | 40 |  |  | 200 | 10 | 2000 | 30
CN(C)CCC=C1c2ccccc2CCc2ccccc21 [Amitryptiline, reference compound] |  |  |  | 12 |  |  |  |  |  | 
CCC(=O)N1N=C(c2ccccc2)Nc2cnccc21 [Example 12, 3-phenyl-1-propionyl-1,4-dihydropyrido[3,4-e]-as-triazine] | >57.4 | 35 |  |  | above 40 | 50 | 32.3 | 62 | > 2000 | 26
CCC(=O)N1C=NN(C(=O)CC)c2ccncc21 [Example 18, 1,4-dipropioyl-1,4-dihydropyrido[3,4-e]-as-triazine] |  |  |  |  | 75 | 6 |  |  | 450 | 12
CCCCC1C(=O)N(c2ccccc2)N(c2ccccc2)C1=O [Phenylbutazone, reference compound] |  |  |  |  |  | 65 |  |  |  | 90
CCCC(=O)N1N=C(c2ccccc2)Nc2cnccc21 [Example 19, 3-phenyl-1-butyryl-1,4-dihydropyrido[3,4-e]-as-triazine] | 16.67 | 90 | 75 | 20 | 20 | 75 | 10 | 150 | 1500 | 13
